Data from patent US12170135B2, “Systems and methods for evaluating query perturbations” (Recursion Pharmaceuticals, Inc., priority 2019, dated 2024).
“Also recorded” adds a separate entry of the source.

Tests used:
[1] = tested on: NF2 deficiency in primary human cells; experiment: Primary drug screens on NF2 loss-of-function model; format: cell-based; conditions: for rescue of NF2 loss-of-function phenotype: primary screen
Source text: To identify novel and effective treatments for NF2, a loss-of-function model of the disease in a primary human cells and screened for molecules that rescue the disease-specific phenotype. […] These figures illustrate results from a series of primary drug screens to identify drug candidates for NF2 from a library of approximately 2000 small molecules. Scores for control perturbations (largely clustered in region 1102), test perturbations (largely clustered in region 1104), and query perturbations (largely clustered in region 1106), are shown in the plots. A small number of hits were algorithmically selected based on their effects in the assay and used for further screening.

[2] = tested on: SMN protein; conditions: cell-based assays and patients; cited from earlier work
[3] = tested on: SMA patients; conditions: clinical trials; cited from earlier work
[4] = tested on: ATM deficiency in A549 cells
Source text: (§1) Hits were algorithmically selected based on effect and screened with a higher replicate count in a tertiary screen. […] The length of the wider green bars, such as bar 910, represents changes in individual features of increasing or decreasing magnitude that best represent the ATM disease signature. The impact of each drug on individual features is overlaid in a second, narrower red shaded bar, such as bar 911. […] The order of the features was randomized between individual plots, and individual feature labels are omitted. […] Western blots probed for ATM and phosphorylated Chk2. […] The lower plots represent quantification of phosphorylated Chk2 from the Western Blot, n=3. H=Healthy; *denotes p<0.05, two-sided paired ratio t-test.
(§2) Small molecule compounds were then tested on the A-T disease model using the screening methods described herein.

[5] = tested on: patients with NF2; conditions: Phase 2 study; cited from earlier work
[6] = tested on: Chk2 phosphorylation in ATM knockdown A549 cells; experiment: Western blot for phosphorylated Chk2 in siRNA transfected A549 cells treated with H2O2; format: cell-based; conditions: H2O2 treatment
Description: Glucocorticoids are identified by the dashed red polygon 901. […] Western blots probed for ATM and phosphorylated Chk2.
To further validate these compounds, disease-specific studies were performed. In response to DNA damage, ATM stimulates phosphorylation of a host of target proteins, including the checkpoint kinase Chk2. As expected, it was observed that siRNA-mediated knockdown of ATM mRNA in the A549 model cell-line suppressed phosphorylation of Chk2 after H2O2 treatment. Moreover, most glucocorticoids tested restored Chk2 phosphorylation to nearly 50% of control levels, with betamethasone and dexamethasone showing the least rescue (FIG. 9C).

[7] = tested on: Chk2 phosphorylation in primary fibroblasts derived from a patient with A-T; experiment: Western blot for phosphorylated Chk2 in primary fibroblasts from a patient with A-T; format: cell-based, human; conditions: H2O2
[8] = tested on: ATM deficiency in A549 cells; experiment: Cell Painting phenotypic screen on the A-T disease model (on-target/off-target scores); conditions: ATM disease signature, FIG. 9B
Source text: as §1, §2

SMILES: CNC(=O)c1cccc(-c2ccc3c(N4CCOC[C@@H]4C)nc(N4CCOC[C@@H]4C)nc3n2)c1 [AZD2014]
- side-effect profile in NF2 screen [1]: elevated side-effect profile compared to another highly selective mTOR inhibitor
- rescue of NF2 loss-of-function phenotype [1]: strong rescue

SMILES: CCN(CC)CCNC(=O)c1c(C)[nH]c(/C=C2\C(=O)Nc3ccc(F)cc32)c1C [Sunitinib, sunitinib]
- side-effect profile in NF2 screen [1]: minimal increase in side-effect profile

SMILES: CCCC(CCC)C(=O)O [Valproic acid]
- SMN protein level [2]: increases full length SMN protein
- clinical improvement in SMA [3]: modest clinical improvement

SMILES: C[C@H]1C[C@H]2[C@@H]3CCC4=CC(=O)C=C[C@]4(C)[C@@]3(F)[C@@H](O)C[C@]2(C)[C@@]1(O)C(=O)CO [betamethasone]
- side effect profile (off-target score) in the screen [4]: greater side effects

SMILES: CO[C@H]1C[C@@H]2CC[C@@H](C)[C@@](O)(O2)C(=O)C(=O)N2CCCC[C@H]2C(=O)O[C@H]([C@H](C)C[C@@H]2CC[C@@H](OCCO)[C@H](OC)C2)CC(=O)[C@H](C)/C=C(\C)[C@@H](O)[C@@H](OC)C(=O)[C@H](C)C[C@H](C)/C=C/C=C/C=C/1C [everolimus]
- clinical efficacy in NF2 / meningioma [5]: failed to demonstrate efficacy
- rescue of NF2 loss-of-function phenotype [1]: minimal efficacy

SMILES: CS(=O)(=O)CCNCc1ccc(-c2ccc3ncnc(Nc4ccc(OCc5cccc(F)c5)c(Cl)c4)c3c2)o1 [lapatinib]
- clinical efficacy in NF2 / meningioma [5]: antitumor activity in a subset of patients
- tolerability in patients with NF2 [5]: well tolerated

SMILES: C[C@@H]1C[C@H]2[C@@H]3CCC4=CC(=O)C=C[C@]4(C)[C@@]3(Cl)[C@@H](O)C[C@]2(C)[C@@]1(O)C(=O)CCl [mometasone]
- rescue of Chk2 phosphorylation associated with ATM deficiency [6]: better rescue ATM deficiency
- rescue of Chk2 phosphorylation associated with ATM deficiency ([6]; listed as Mometasone): superior P-Chk2 rescue
- rescue of Chk2 phosphorylation in primary patient-derived cells [7]: dose-dependent rescue of Chk2 phosphorylation; also recorded: dose-dependent increase in Chk2 phosphorylation
- impact on the twenty most prominent phenotypic disease features [8]: rescues a subset of features
